Source: PMC5920098, “Identification of the allosteric P2X7 receptor antagonist [^11C]SMW139 as a PET tracer of microglial activation” (Scientific Reports, 2018)
“Also recorded” adds a separate entry of the source.

Legend:
hP2X7R = target: T1, hP2X7R (Homo sapiens, UniProt Q99572); experiment: PET imaging in rats locally overexpressing hP2X7R in right striatum; assay type: in vivo, rat; conditions: 30 mg·kg^−1 s.c., 45 min prior to tracer injection
T1 construct: 3xFLAG (3flag); expressed in transfected cells; host or cells: rat striatum (female Wistar rats), transduced in vivo with the AAV vector rAAV_3flag-hP2X7R
T1 sequence (Q99572 1-595): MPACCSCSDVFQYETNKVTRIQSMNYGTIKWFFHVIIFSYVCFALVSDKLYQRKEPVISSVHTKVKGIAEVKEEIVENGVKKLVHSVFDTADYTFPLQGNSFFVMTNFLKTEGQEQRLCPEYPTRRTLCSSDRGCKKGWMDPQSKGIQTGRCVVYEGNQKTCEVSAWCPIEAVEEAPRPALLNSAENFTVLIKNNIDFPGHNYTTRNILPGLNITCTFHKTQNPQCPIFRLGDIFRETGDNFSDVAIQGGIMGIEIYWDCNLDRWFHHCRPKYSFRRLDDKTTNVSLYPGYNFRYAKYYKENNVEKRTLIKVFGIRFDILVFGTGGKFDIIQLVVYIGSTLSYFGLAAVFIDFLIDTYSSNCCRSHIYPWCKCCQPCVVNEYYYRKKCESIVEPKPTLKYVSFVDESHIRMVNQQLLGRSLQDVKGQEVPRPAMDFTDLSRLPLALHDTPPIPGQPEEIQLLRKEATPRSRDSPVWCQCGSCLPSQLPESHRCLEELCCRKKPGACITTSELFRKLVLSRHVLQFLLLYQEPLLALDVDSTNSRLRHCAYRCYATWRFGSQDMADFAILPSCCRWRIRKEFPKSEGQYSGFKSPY
Description: Uptake of [^11C]SMW139 was 1.5-fold higher in the right striatum compared with the contralateral striatum at 4–15 min p.i. (n = 3; Fig. 6A,B, and Supplementary Figure S5, 5 weeks after vector injection). […] (2.85 ± 0.69 vs. 2.30 ± 0.36 in contralateral striatum) throughout the remainder of the scanning time.
Female rats were injected with the hP2X7R expressing vector in the right striatum, and eGFP expressing vector in the left striatum, which is described in detail in the Supplementary Information. […] To confirm stable expression of hP2X7R during the time period in which PET scanning studies were conducted, autoradiography experiments were performed both prior to and following PET experiments. In a dedicated small animal PET scanner (nanoPET, Mediso Ltd.), 60 min dynamic PET scans were acquired immediately after intravenous administration of 16–20 MBq of [^11C]SMW139. […] 45 min prior to tracer injection. After data reconstruction (details in Supplementary Information), images were analysed using the freely available AMIDE software (version 0.9.2; http://amide.sourceforge.net). ROIs were drawn around ipsi- and contralateral striata. Results are expressed as standardised uptake values (SUVs) and error bars indicate standard deviation.
Stereotactic injection of viral vector […]
to a 10 µL Hamilton syringe. […]
dorsoventral -0.64 cm relative to bregma. […]
minutes before removing it slowly.
Rats were sacrificed for in
Dynamic PET imaging was performed using dedicated small animal NanoPET/CT and NanoPET/MR scanners (Mediso Ltd., Budapest, Hungary) which are equipped with identical PET components. […]
anaesthetised with 4% and 2% isoflurane in oxygen (1 L·min-1) for induction and maintenance, respectively. Rats were positioned on the scanner bed and their respiratory rate was monitored during the entire scan, and anaesthesia was adjusted whenever required. Dynamic PET scans were acquired immediately after intravenous (i.v.) administration of 16-20 MBq of [11C]SMW139 via the tail vein. For […]
hydroxypropyl)-β-cyclodextrin in water for injection 45 min prior to tracer injection. PET scans were acquired in list mode and rebinned into the following frame sequence: 4 × 5, 4 x 10, 2 x 30, 3x 60, 2 x 300, 1 x 600, 1 x 900 and 1 x 1200 s. Reconstruction was performed using a fully 3-dimensional reconstruction algorithm (Tera-TomoTM, Mediso Ltd.) with 4 iterations and 6 subsets, and an isotropic 0.4 mm voxel dimension. Images were analysed using the freely available AMIDE software (version 0.9.2; http://amide.sourceforge.net). 3D ellipsoid ROIs (dimensions x = 3.4 mm, y = 3.6 mm, z = 2.9 […]
mm) were drawn within ipsi- and contralateral striata. Results are expressed as standardised uptake values (SUVs) and error bars indicate standard deviation. SUV were calculated as follows, with cimg in MBq/mL, injected dose in MBq and bodyweight in kg:
An unpaired two-tailed t-test was used for statistical analysis of PET data, which was performed using […]
allowed to recover for 1 week after scanning. After 1 week of recovery following the final scan (12 weeks after stereotactic vector injection) animals were sacrificed, and brains were excised and stored […]
Extended single microdose toxicity study
A single microdose toxicity study according to EMEA guideline EMA/CPMP/ICH/286/1995 (December 2009) was performed in healthy Wistar rats at a 1000 times higher dose than the maximal dose […]
minimum specific activity of 18.5 GBq·µmol-1). Animals were allowed to acclimatise for 10 days, group-housed and in an enriched environment with food and water available ad libitum, and with a 12-hour light-dark cycle in a temperature controlled room.

P2X7R = target: T2, P2X7R (Homo sapiens, UniProt Q99572); experiment: In vitro autoradiography on post mortem human brain tissue (AD patients and controls); assay type: binding; conditions: blocker 10 µM, AD patients and controls
T2 construct: Snap frozen human post-mortem; tissue The Netherlands Brain Bank; host or cells: post mortem human temporal cortex (AD patients and non-neurological controls)
T2 sequence (Q99572 1-595): T1 sequence (Q99572 1-595)

human P2X7R = target: human P2X7R; set-up: method as in PMID 28841278; conditions: cited from earlier work

| Compound | Effect of pre-treatment on [^11C]SMW139 uptake/binding in rAAV_3flag-hP2X7R striatum (hP2X7R) | Blocking of [^11C]SMW139 binding in post mortem human brain tissue (P2X7R) | Ki (human P2X7R) [nM] |
| --- | --- | --- | --- |
| O=C(NCC1(N2CCN(c3ccccc3)CC2)CCOCC1)c1cccnc1Sc1ccccc1 [JNJ-47965567, reference compound] | down to baseline levels; also recorded: significantly decreased | fully blocked; also recorded: virtually complete blocking | – |
| COc1ccc(Cl)c(C(=O)NCC23CC4CC(CC(C4)C2)C3)c1 [compound 1] | – | – | 9 |
| COc1ccc(Cl)c(C(=O)NCC23CC4CC(CC(F)(C4)C2)C3)c1 [compound 2] | – | – | 22 |
| COc1ccc(Cl)c(C(=O)NCC23CC4CC(F)(CC(F)(C4)C2)C3)c1 [compound 3] | – | – | 23 |
